# According to patent US8802597B2, “Herbicidal pyrimidines” (E I du Pont de Nemours and Company, priority 2003, dated 2014):
# Assays:
# Assay type in all cases: in vivo
# [1] = tested on: winter barley (Hordeum vulgare); experiment: Test D pre/postemergence; settings: scale 0 to 100 (100 = complete control)
# Summary of the method: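 Pre: seeds sown, then treated. Post: plants at 1- to 4-leaf stage (2 to 18 cm) sprayed at the same time. Chemicals formulated in a non-phytotoxic solvent mixture including surfactant. After 15 to 25 days under controlled growth conditions, response rated visually from 0 (no effect) to 100 (complete control).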
# [2] = tested on: quackgrass (Elytrigia repens); experiment: Test G pre/postemergence; settings: Preemergence
# Summary of the method: (§1)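 Visual scores from 0 (no effect) to 100 (complete control) were assigned relative to untreated controls 12 to 21 days after treatment. Compounds, formulated in a non-phytotoxic solvent mixture with surfactant, were applied preemergence to planted seed or postemergence to plants at the 1- to 4-leaf stage (2 to 18 cm).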
# [3] = tested on: itchgrass (Rottboellia cochinchinensis); experiment: Test G pre/postemergence; settings: Preemergence
# Summary of the method: as §1
# [4] = tested on: common ragweed (Ambrosia elatior); experiment: Test G pre/postemergence; settings: Preemergence
# Summary of the method: as §1
# [5] = tested on: common chickweed (Stellaria media); experiment: Test G pre/postemergence; settings: Preemergence
# Summary of the method: as §1
# [6] = tested on: barnyardgrass (Echinochloa crus-galli); experiment: Test G pre/postemergence; settings: Preemergence
# Summary of the method: as §1
# [7] = tested on: downy bromegrass (Bromus tectorum); experiment: Test G pre/postemergence; settings: Preemergence
# Summary of the method: as §1
# [8] = tested on: common groundsel (Senecio vulgaris); experiment: Test G pre/postemergence; settings: Preemergence
# Summary of the method: as §1
# [9] = tested on: prickly sida (Sida spinosa); experiment: Test G pre/postemergence; settings: Preemergence
# Summary of the method: as §1
# [10] = tested on: southern sandbur (Cenchrus echinatus); experiment: Test G pre/postemergence; settings: Preemergence
# Summary of the method: as §1
# [11] = tested on: large crabgrass (Digitaria sanguinalis); experiment: Test G pre/postemergence; settings: Preemergence
# Summary of the method: as §1
# [12] = tested on: guineagrass (Panicum maximum); experiment: Test G pre/postemergence; settings: Preemergence
# Summary of the method: as §1
compound,measurement,setting,value
CCOC(=O)Cc1nc(C2CC2)nc(N=CN(C)C)c1Br [Compound 33],"Plant response rating, Barley","[1]; Postemergence, 62 g ai/ha",45
same,"Plant response rating, Barley","[1]; Postemergence, 125 g ai/ha",45
same,"Plant response rating, Barley","[1]; Postemergence, 250 g ai/ha",45
same,"Plant response rating, Barley","[1]; Preemergence, 62 g ai/ha",10
same,"Plant response rating, Barley","[1]; Preemergence, 125 g ai/ha",35
same,"Plant response rating, Barley","[1]; Preemergence, 250 g ai/ha",45
COC(=O)c1nc(C2CC2C)nc(N)c1Br (stereo not drawn) [Compound 28],"Plant response rating, Barley","[1]; Postemergence, 62 g ai/ha",20
same,"Plant response rating, Barley","[1]; Postemergence, 125 g ai/ha",40
same,"Plant response rating, Barley","[1]; Postemergence, 250 g ai/ha",40
same,"Plant response rating, Barley","[1]; Preemergence, 62 g ai/ha",10
same,"Plant response rating, Barley","[1]; Preemergence, 125 g ai/ha",25
same,"Plant response rating, Barley","[1]; Preemergence, 250 g ai/ha",45
COC(=O)c1nc(C2CC2)nc(NO)c1Br [Compound 35],"Plant response rating, Barley","[1]; Postemergence, 62 g ai/ha",65
same,"Plant response rating, Barley","[1]; Postemergence, 125 g ai/ha",65
same,"Plant response rating, Barley","[1]; Postemergence, 250 g ai/ha",70
same,"Plant response rating, Barley","[1]; Preemergence, 62 g ai/ha",40
same,"Plant response rating, Barley","[1]; Preemergence, 125 g ai/ha",45
same,"Plant response rating, Barley","[1]; Preemergence, 250 g ai/ha",45
Nc1nc(C2CC2)nc(C=O)c1Br [Compound 26],"Plant response rating, Barley","[1]; Postemergence, 125 g ai/ha",45
same,"Plant response rating, Barley","[1]; Postemergence, 250 g ai/ha",50
same,"Plant response rating, Barley","[1]; Preemergence, 125 g ai/ha",25
same,"Plant response rating, Barley","[1]; Preemergence, 250 g ai/ha",35
"CCOC(=O)c1nc(C2CC2)nc(N)c1Cl [Compound 4, ethyl 6-amino-5-chloro-2-cyclopropyl-4-pyrimidinecarboxylate]","Plant response rating, Quackgrass","[2]; 62 g ai/ha, scale 0-100",60
same,"Plant response rating, Quackgrass","[2]; 125 g ai/ha, scale 0-100",90
same,"Plant response rating, Quackgrass","[2]; 250 g ai/ha, scale 0-100",100
same,"Plant response rating, Quackgrass","[2]; 500 g ai/ha, scale 0 to 100",100
same,"Plant response rating, Itchgrass","[3]; 62 g ai/ha, scale 0-100",70
same,"Plant response rating, Itchgrass","[3]; 125 g ai/ha, scale 0-100",70
same,"Plant response rating, Itchgrass","[3]; 250 g ai/ha, scale 0-100",80
same,"Plant response rating, Itchgrass","[3]; 500 g ai/ha, scale 0 to 100",95
same,"Plant response rating, Ragweed","[4]; 62 g ai/ha, scale 0-100",80
same,"Plant response rating, Ragweed","[4]; 125 g ai/ha, scale 0-100",100
same,"Plant response rating, Ragweed","[4]; 250 g ai/ha, scale 0-100",100
same,"Plant response rating, Ragweed","[4]; 500 g ai/ha, scale 0 to 100",100
same,"Plant response rating, Chickweed","[5]; 62 g ai/ha, scale 0-100",100
same,"Plant response rating, Chickweed","[5]; 125 g ai/ha, scale 0-100",100
same,"Plant response rating, Chickweed","[5]; 250 g ai/ha, scale 0-100",100
same,"Plant response rating, Chickweed","[5]; 500 g ai/ha, scale 0 to 100",100
same,"Plant response rating, Barnyardgrass","[6]; 62 g ai/ha, scale 0-100",50
same,"Plant response rating, Barnyardgrass","[6]; 125 g ai/ha, scale 0-100",70
same,"Plant response rating, Barnyardgrass","[6]; 250 g ai/ha, scale 0-100",80
same,"Plant response rating, Barnyardgrass","[6]; 500 g ai/ha, scale 0 to 100",100
same,"Plant response rating, Bromegrass, Downy","[7]; 62 g ai/ha, scale 0-100",30
same,"Plant response rating, Bromegrass, Downy","[7]; 125 g ai/ha, scale 0-100",70
same,"Plant response rating, Bromegrass, Downy","[7]; 250 g ai/ha, scale 0-100",100
same,"Plant response rating, Bromegrass, Downy","[7]; 500 g ai/ha, scale 0 to 100",100
same,"Plant response rating, Groundsel","[8]; 62 g ai/ha, scale 0-100",95
same,"Plant response rating, Groundsel","[8]; 125 g ai/ha, scale 0-100",95
same,"Plant response rating, Groundsel","[8]; 250 g ai/ha, scale 0-100",100
same,"Plant response rating, Groundsel","[8]; 500 g ai/ha, scale 0 to 100",100
same,"Plant response rating, Prickly Sida","[9]; 62 g ai/ha, scale 0-100",85
same,"Plant response rating, Prickly Sida","[9]; 125 g ai/ha, scale 0-100",100
same,"Plant response rating, Prickly Sida","[9]; 250 g ai/ha, scale 0-100",100
same,"Plant response rating, Prickly Sida","[9]; 500 g ai/ha, scale 0 to 100",100
same,"Plant response rating, Sandbur","[10]; 62 g ai/ha, scale 0-100",30
same,"Plant response rating, Sandbur","[10]; 125 g ai/ha, scale 0-100",80
same,"Plant response rating, Sandbur","[10]; 250 g ai/ha, scale 0-100",90
same,"Plant response rating, Sandbur","[10]; 500 g ai/ha, scale 0 to 100",100
same,"Plant response rating, Crabgrass, Large","[11]; 62 g ai/ha, scale 0-100",60
same,"Plant response rating, Crabgrass, Large","[11]; 125 g ai/ha, scale 0-100",75
same,"Plant response rating, Crabgrass, Large","[11]; 250 g ai/ha, scale 0-100",100
same,"Plant response rating, Crabgrass, Large","[11]; 500 g ai/ha, scale 0 to 100",100
same,"Plant response rating, Guineagrass","[12]; 62 g ai/ha, scale 0-100",95
same,"Plant response rating, Guineagrass","[12]; 125 g ai/ha, scale 0-100",95
same,"Plant response rating, Guineagrass","[12]; 250 g ai/ha, scale 0-100",100
same,"Plant response rating, Guineagrass","[12]; 500 g ai/ha, scale 0 to 100",100
